# Measured values as given in ChEMBL document CHEMBL1142442, “Synthesis of chimeric tetrapeptide-linked cholic acid derivatives: impending synergistic agents” (Bioorg Med Chem Lett, 2008).
# Where a SMILES comes first, the peptide text is derived from it. The star is where a group is joined. Boc = CC(C)(C)OC(=O)*; OBn = c1ccc(CO*)cc1
# Columns and labels:
# [1] = system: Escherichia coli; test: Antibacterial activity at Escherichia coli assessed as concentration required to lower the MIC of erythromycin from 64 to 1 ug/mL after 24 hrs; assay type: functional
# [2] = system: MCF7; test: Antiproliferative activity against human MCF7 cells at upto 80 uM by MTT assay; assay type: functional, cell-based
# [3] = system: Candida albicans; test: Antifungal activity at Candida albicans; assay type: functional
# [4] = system: Benjaminiella poitrasii; test: Antifungal activity at Benjaminiella poitrasii; assay type: functional
# [5] = system: Escherichia coli; test: Antibacterial activity at Escherichia coli; assay type: functional
# [6] = system: HEK293; test: Antiproliferative activity against HEK293 cells at upto 80 uM by MTT assay; assay type: cell-based; details: human
# [7] = system: MCF7; test: Antiproliferative activity against human MCF7 cells by MTT assay; assay type: functional, cell-based
# [8] = system: Cryptococcus neoformans; test: Antifungal activity at Cryptococcus neoformans; assay type: functional
# [9] = system: HEK293; test: Antiproliferative activity against HEK293 cells by MTT assay; assay type: cell-based; details: Homo sapiens
# [10] = system: Fusarium oxysporum; test: Antifungal activity at Fusarium oxysporum; assay type: functional
# [11] = system: Candida albicans; test: Antifungal activity at Candida albicans assessed as concentration required to lower the MIC of fluconazole from 32 to 1 ug/mL after 48 hrs; assay type: functional
# [12] = system: Staphylococcus aureus; test: Antibacterial activity at Staphylococcus aureus; assay type: functional
# [13] = system: Yarrowia lipolytica; test: Antifungal activity at Yarrowia lipolytica; assay type: functional
Structure (SMILES),MIC [1] [µg/mL],Activity [2],MIC [3] [µg/mL],MIC [4] [µg/mL],MIC [5] [µg/mL],Activity [6],IC50 [7] [µM],MIC [8] [µg/mL],IC50 [9] [µM],MIC [10] [µg/mL],MIC [11] [µg/mL],MIC [12] [µg/mL],MIC [13] [µg/mL]
CC(=O)OCCC[C@@H](C)[C@H]1CC[C@H]2[C@@H]3[C@H](OC(C)=O)C[C@@H]4C[C@@H](NC(=O)CNC(=O)CNC(=O)CNC(=O)CNC(=O)OC(C)(C)C)CC[C@]4(C)[C@H]3C[C@H](O)[C@]12C,24,Non-toxic,64,32,64,Non-toxic,500,> 128,200,64,12,> 128,> 128
CC(C)(C)OC(=O)NCC(=O)NCC(=O)NCC(=O)NCC(=O)O (Boc-GGGG-OH),128,,> 128,,64,,,,,,64,,
CN(C)[C@@H]1C(O)=C(C(N)=O)C(=O)[C@@]2(O)C(O)=C3C(=O)c4c(O)cccc4[C@@](C)(O)[C@H]3C[C@@H]12 [TETRACYCLINE],,,,,8,,,,,,,16,
CC(C)(C)OC(=O)NCCC(=O)NCCC(=O)NCCC(=O)NCCC(=O)OCc1ccccc1,64,,> 128,,128,,,,,,128,,
COC(=O)CC[C@@H](C)[C@H]1CC[C@H]2[C@@H]3[C@H](O)C[C@@H]4C[C@@H](NC(=O)CCNC(=O)CCNC(=O)CCNC(=O)CCNC(=O)OC(C)(C)C)CC[C@]4(C)[C@H]3C[C@H](O)[C@]12C,16,Non-toxic,32,16,> 128,Non-toxic,100,> 128,> 1000,64,6,> 128,96
CC(C)(C)OC(=O)NCCC(=O)NCCC(=O)NCCC(=O)NCCC(=O)O,> 128,,> 128,,64,,,,,,64,,
CC(=O)OCCC[C@@H](C)[C@H]1CC[C@H]2[C@@H]3[C@H](OC(C)=O)C[C@@H]4C[C@@H](NC(=O)CCNC(=O)CCNC(=O)CCNC(=O)CCNC(=O)OC(C)(C)C)CC[C@]4(C)[C@H]3C[C@H](O)[C@]12C,10,Non-toxic,32,64,> 128,Non-toxic,150,> 128,80,> 128,8,32,96
C[C@H](CCCO)[C@H]1CC[C@H]2[C@@H]3[C@H](O)C[C@@H]4C[C@@H](NC(=O)CCNC(=O)CCNC(=O)CCNC(=O)CCNC(=O)OC(C)(C)C)CC[C@]4(C)[C@H]3C[C@H](O)[C@]12C,20,Non-toxic,128,> 128,> 128,Non-toxic,> 1000,> 128,800,64,12,> 128,> 128
CC[C@H]1OC(=O)[C@H](C)[C@@H](O[C@H]2C[C@@](C)(OC)[C@@H](O)[C@H](C)O2)[C@H](C)[C@@H](O[C@@H]2O[C@H](C)C[C@H](N(C)C)[C@H]2O)[C@](C)(O)C[C@@H](C)C(=O)[C@H](C)[C@@H](O)[C@]1(C)O [ERYTHROMYCIN],,,,,64,,,,,,,32,
C[C@H](CCC(=O)O)[C@H]1CC[C@H]2[C@@H]3[C@H](O)C[C@@H]4C[C@H](O)CC[C@]4(C)[C@H]3C[C@H](O)[C@]12C [CHOLIC ACID],64,,> 128,128,> 128,,50,> 128,> 1000,> 128,64,> 128,> 128
NCC(=O)NCC(=O)NCC(=O)NCC(=O)O (H-GGGG-OH),64,,128,,> 128,,,,,,> 128,,
COC(=O)CC[C@@H](C)[C@H]1CC[C@H]2[C@@H]3[C@H](O)C[C@@H]4C[C@@H](NC(=O)CNC(=O)CNC(=O)CNC(=O)CNC(=O)OC(C)(C)C)CC[C@]4(C)[C@H]3C[C@H](O)[C@]12C,24,Non-toxic,16,64,96,Non-toxic,300,> 128,600,64,8,32,> 128
CC(=O)OCCC[C@@H](C)[C@H]1CC[C@H]2[C@@H]3[C@H](OC(C)=O)C[C@@H]4C[C@@H](NC(=O)CNC(=O)CNC(=O)CNC(=O)CN)CC[C@]4(C)[C@H]3C[C@H](O)[C@]12C,8,Non-toxic,64,16,> 128,Non-toxic,150,> 128,800,32,6,64,> 128
NCCC(=O)NCCC(=O)NCCC(=O)NCCC(=O)O,> 128,,> 128,,128,,,,,,128,,
C[C@@H]1[C@H](O)[C@@H](C)/C=C/C=C/C=C/C=C/C=C/C=C/C=C/[C@H](O[C@@H]2O[C@H](C)[C@@H](O)[C@H](N)[C@@H]2O)C[C@@H]2O[C@](O)(C[C@@H](O)C[C@@H](O)[C@H](O)CC[C@@H](O)C[C@@H](O)CC(=O)O[C@H]1C)C[C@H](O)[C@H]2C(=O)O [AMPHOTERICIN B],,,2,16,,,,16,,16,,,16
CC(CCC(=O)O)C1CCC2C3C(O)CC4CC(NC(=O)CCNC(=O)CCNC(=O)CCNC(=O)CCNC(=O)OC(C)(C)C)CCC4(C)C3CC(O)C12C (configuration not stated),16,Non-toxic,32,48,> 128,Non-toxic,> 1000,> 128,> 1000,64,12,> 128,> 128
C[C@H](CCCO)[C@H]1CC[C@H]2[C@@H]3[C@H](O)C[C@@H]4C[C@@H](NC(=O)CCNC(=O)CCNC(=O)CCNC(=O)CCN)CC[C@]4(C)[C@H]3C[C@H](O)[C@]12C,8,Non-toxic,64,64,32,Non-toxic,> 1000,> 128,800,> 128,6,> 128,> 128
OC(Cn1cncn1)(Cn1cncn1)c1ccc(F)cc1F [FLUCONAZOLE],,,32,32,,,,32,,8,,,64
C[C@H](CCC(=O)O)[C@H]1CC[C@H]2[C@@H]3[C@H](O)C[C@@H]4C[C@@H](NC(=O)CCNC(=O)CCNC(=O)CCNC(=O)CCN)CC[C@]4(C)[C@H]3C[C@H](O)[C@]12C,4,Non-toxic,32,24,32,Non-toxic,200,> 128,> 1000,64,1,> 128,> 128
COC(=O)CC[C@@H](C)[C@H]1CC[C@H]2[C@@H]3[C@H](O)C[C@@H]4C[C@@H](NC(=O)CNC(=O)CNC(=O)CNC(=O)CN)CC[C@]4(C)[C@H]3C[C@H](O)[C@]12C,12,Non-toxic,32,64,> 128,Non-toxic,500,> 128,80,128,6,96,> 128
COC(=O)CC[C@@H](C)[C@H]1CC[C@H]2[C@@H]3[C@H](O)C[C@@H]4C[C@@H](NC(=O)CCNC(=O)CCNC(=O)CCNC(=O)CCN)CC[C@]4(C)[C@H]3C[C@H](O)[C@]12C,8,Non-toxic,128,24,96,Non-toxic,600,> 128,700,32,3,64,> 128
CC(C)(C)OC(=O)NCC(=O)NCC(=O)NCC(=O)NCC(=O)OCc1ccccc1 (Boc-GGGG-OBn),128,,> 128,,128,,,,,,128,,
